# Tests used:
# [1] = Toxicity in rat assessed as maximal tolerated dose administrated for 2 weeks; conditions: in vivo
# [2] = Inhibition of biotinylated human IL-17A/AF647-labeled human IL-17RA protein-protein interaction preincubated for 30 mins with compound followed by addition of AF647-labeled human IL-17RA incubated for 90 min by TR-FRET assay
# [3] = Oral bioavailability in C57BL/6 mouse at 3 mg/kg measured upto 24 hrs by LC-MS/MS analysis; assay type: ADME, organism-based; conditions: in vivo
# [4] = Half life in Beagle dog at 0.1 mg/kg,iv or 0.3 mg/kg,po measured upto 24 hrs by LC-MS/MS analysis; assay type: ADME, organism-based, Canis lupus familiaris; conditions: in vivo
# [5] = Plasma protein binding in human assessed as unbound fraction; assay type: ADME, cell-free
# [6] = Metabolic stability in rat hepatocyte assessed as clearance measured per million cells; assay type: ADME, cell-based; conditions: hepatocytes
# [7] = Toxicity in dog assessed as maximal tolerated dose administrated for 2 weeks; set-up: species or system Canis lupus familiaris; conditions: in vivo
# [8] = Plasma protein binding in rat assessed as unbound fraction; assay type: ADME, cell-free
# [9] = Volume of distribution at steady state in C57BL/6 mouse at 1 mg/kg,iv or 3 mg/kg,po measured upto 24 hrs by LC-MS/MS analysis; assay type: ADME, organism-based; conditions: in vivo, read-out: Vdss
# [10] = Testicular toxicity in dog >=75 mg/kg administration for 2 weeks; assay type: organism-based, Canis lupus familiaris; conditions: in vivo, 336 h
# [11] = Toxicity in dog at >=200 mg/kg,administrated for 2 weeks; assay type: organism-based, Canis lupus familiaris; conditions: in vivo, 336 h
# [12] = Testicular toxicity in rat at >=100 mg/kg administration for 2 weeks; assay type: organism-based; conditions: in vivo, 336 h
# [13] = Metabolic stability in mouse liver microsomes assessed as intrinsic clearance; assay type: ADME, Microsome; conditions: read-out: CLH
# Rattus norvegicus [14] = experiment: Antiarthritic activity in antigen-induced arthritis Lewis rat model assessed as reduction in knee swelling at 30 mg/kg,po bid administrated for 4 days; assay type: functional; set-up: scale not given: the % may be the effect or the level left; conditions: time 4 day
# [15] = Metabolic stability in dog hepatocyte assessed as clearance measured per million cells; assay type: ADME, cell-based, Canis lupus familiaris; conditions: hepatocytes
# [16] = Apparent permeability coefficient of the compound across apical to basolateral side in dog MDCK cells by high-throughput analysis; assay type: ADME, cell-based, Canis lupus familiaris
# [17] = Metabolic stability in human liver microsomes assessed as intrinsic clearance; assay type: ADME, Microsome; conditions: read-out: CLH
# [18] = Half life in C57BL/6 mouse at 1 mg/kg,iv or 3 mg/kg,po measured upto 24 hrs by LC-MS/MS analysis; assay type: ADME, organism-based; conditions: in vivo
# Rattus norvegicus [19] = experiment: Antiarthritic activity in antigen-induced arthritis Lewis rat model assessed as reduction in knee swelling at po bid administrated for 4 days; assay type: functional, organism-based; conditions: time 4.0 day
# [20] = Half life in Sprague-Dawley rat at 1 mg/kg,iv or 3 mg/kg,po measured upto 24 hrs by LC-MS/MS analysis; assay type: ADME, organism-based; conditions: in vivo
# [21] = Equilibrium solubility of compound […] at pH 6.8 by high-throughput analysis; assay type: physicochemical
# [22] = Metabolic stability in human hepatocyte assessed as clearance measured per million cells; assay type: ADME, cell-based; conditions: hepatocytes
# [23] = AUClast in Sprague-Dawley rat at 3 mg/kg,po measured upto 24 hrs by LC-MS/MS analysis; assay type: ADME, organism-based; conditions: in vivo
# [24] = Toxicity in dog assessed as morphological change in liver at 200 mg/kg administrated for 2 weeks; assay type: organism-based, Canis lupus familiaris; conditions: in vivo, 336 h
# [25] = Lipophilicity, logD of compound at pH 7.4; assay type: physicochemical; conditions: buffer
# [26] = Inhibition of CXCL1 production in IL-17A stimulated rat IEC-6 cells assessed as fold change in inhibition of CXCL1 release; assay type: functional
# [27] = AUClast in C57BL/6 mouse at 3 mg/kg,po measured upto 24 hrs by LC-MS/MS analysis; assay type: ADME, organism-based; conditions: in vivo
# [28] = Plasma protein binding in dog assessed as unbound fraction; assay type: ADME, cell-free, Canis lupus familiaris
# [29] = biological target: T1, Solute carrier organic anion transporter family member 1B1 (Homo sapiens, UniProt Q9Y6L6); experiment: Inhibition of OATP1B1 (unknown origin); assay type: toxicity
# T1 sequence (Q9Y6L6 whole entry): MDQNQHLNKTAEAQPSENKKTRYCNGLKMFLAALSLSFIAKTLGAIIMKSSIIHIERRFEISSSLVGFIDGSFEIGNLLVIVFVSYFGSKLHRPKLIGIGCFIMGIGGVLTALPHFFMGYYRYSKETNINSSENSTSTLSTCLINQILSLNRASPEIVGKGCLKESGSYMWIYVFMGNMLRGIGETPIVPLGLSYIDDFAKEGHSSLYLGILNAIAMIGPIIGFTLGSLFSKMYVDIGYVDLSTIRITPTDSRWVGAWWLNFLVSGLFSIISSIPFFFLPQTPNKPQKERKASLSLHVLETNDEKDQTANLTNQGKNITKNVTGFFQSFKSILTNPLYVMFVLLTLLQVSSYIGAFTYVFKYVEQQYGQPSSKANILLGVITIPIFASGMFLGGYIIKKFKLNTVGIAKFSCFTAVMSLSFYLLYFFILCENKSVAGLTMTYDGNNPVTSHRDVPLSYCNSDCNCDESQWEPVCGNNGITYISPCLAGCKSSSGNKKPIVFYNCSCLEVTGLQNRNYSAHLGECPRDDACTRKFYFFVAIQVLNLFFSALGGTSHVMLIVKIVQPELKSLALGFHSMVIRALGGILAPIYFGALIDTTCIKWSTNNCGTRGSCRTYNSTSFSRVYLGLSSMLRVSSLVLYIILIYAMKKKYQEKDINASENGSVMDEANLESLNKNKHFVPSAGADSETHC
# [30] = Plasma protein binding in mouse assessed as unbound fraction; assay type: ADME, cell-free
# [31] = Metabolic stability in dog liver microsomes assessed as intrinsic clearance; assay type: ADME, Canis lupus familiaris, Microsome; conditions: read-out: CLH
# Rattus norvegicus [32] = experiment: Antiarthritic activity in antigen-induced arthritis Lewis rat model assessed as reduction in knee swelling at 1 mg/kg,po bid administrated for 4 days; assay type: functional; set-up: scale not given: the % may be the effect or the level left; conditions: time 4 day
# [33] = Toxicity in dog assessed as increase in serum liver enzyme at 200 mg/kg administrated for 2 weeks; assay type: organism-based, Canis lupus familiaris; conditions: in vivo, 336 h
# [34] = Inhibition of IL-6 production in IL-17/TNF-alpha stimulated human NHDF cells incubated for 24 hrs by ELISA; assay type: functional, cell-based
# [35] = Volume of distribution at steady state in Beagle dog at 0.1 mg/kg,iv or 0.3 mg/kg,po measured upto 24 hrs by LC-MS/MS analysis; assay type: ADME, organism-based, Canis lupus familiaris; conditions: in vivo, read-out: Vdss
# [36] = Oral bioavailability in Sprague-Dawley rat at 3 mg/kg measured upto 24 hrs by LC-MS/MS analysis; assay type: ADME, organism-based; conditions: in vivo, po, 3 mg/kg, 24 h
# [37] = Inhibition of CXCL1 production in IL-17A stimulated rat IEC-6 cells; assay type: functional
# [38] = GSH reactivity in aqueous buffer at pH 7.4 assessed as GSH-adduct formation by measuring half life; assay type: physicochemical
# [39] = AUClast in Beagle dog at 0.3 mg/kg,po measured upto 24 hrs by LC-MS/MS analysis; assay type: ADME, organism-based, Canis lupus familiaris; conditions: in vivo
# [40] = Metabolic stability in rat liver microsomes assessed as intrinsic clearance; assay type: ADME, Microsome; conditions: read-out: CLH
# [41] = Oral bioavailability in Beagle dog at 0.3 mg/kg measured upto 24 hrs by LC-MS/MS analysis; assay type: ADME, organism-based, Canis lupus familiaris; conditions: in vivo
# [42] = AUC in Sprague-Dawley rat at 3 mg/kg,po measured upto 24 hrs by LC-MS/MS analysis; assay type: ADME, organism-based; conditions: in vivo, po, 3 mg/kg, 24 h
# [43] = biological target: T2, Muscarinic acetylcholine receptor M2 (Homo sapiens, UniProt P08172); experiment: Inhibition of muscarinic M2 receptor (unknown origin); assay type: toxicity
# T2 sequence (P08172 whole entry): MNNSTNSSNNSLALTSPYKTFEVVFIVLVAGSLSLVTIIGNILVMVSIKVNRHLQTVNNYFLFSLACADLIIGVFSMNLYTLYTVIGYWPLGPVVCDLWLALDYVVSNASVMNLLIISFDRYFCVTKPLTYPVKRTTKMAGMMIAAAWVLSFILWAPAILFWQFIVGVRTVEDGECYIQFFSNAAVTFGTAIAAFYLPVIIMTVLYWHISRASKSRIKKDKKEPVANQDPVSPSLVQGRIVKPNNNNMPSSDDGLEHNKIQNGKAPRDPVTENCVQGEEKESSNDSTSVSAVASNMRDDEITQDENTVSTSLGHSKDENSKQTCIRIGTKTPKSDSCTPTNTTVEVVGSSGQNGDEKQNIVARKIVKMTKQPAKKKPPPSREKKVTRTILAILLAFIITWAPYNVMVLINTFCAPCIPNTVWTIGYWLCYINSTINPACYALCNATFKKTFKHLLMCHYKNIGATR
# Bile salt export pump = Bile salt export pump (Homo sapiens, UniProt O95342); experiment: Inhibition of BSEP (unknown origin); assay type: toxicity
# [44] = Volume of distribution at steady state in Sprague-Dawley rat at 1 mg/kg,iv or 3 mg/kg,po measured upto 24 hrs by LC-MS/MS analysis; assay type: ADME, organism-based; conditions: in vivo, read-out: Vdss
# Chain of Bile salt export pump (O95342 whole entry): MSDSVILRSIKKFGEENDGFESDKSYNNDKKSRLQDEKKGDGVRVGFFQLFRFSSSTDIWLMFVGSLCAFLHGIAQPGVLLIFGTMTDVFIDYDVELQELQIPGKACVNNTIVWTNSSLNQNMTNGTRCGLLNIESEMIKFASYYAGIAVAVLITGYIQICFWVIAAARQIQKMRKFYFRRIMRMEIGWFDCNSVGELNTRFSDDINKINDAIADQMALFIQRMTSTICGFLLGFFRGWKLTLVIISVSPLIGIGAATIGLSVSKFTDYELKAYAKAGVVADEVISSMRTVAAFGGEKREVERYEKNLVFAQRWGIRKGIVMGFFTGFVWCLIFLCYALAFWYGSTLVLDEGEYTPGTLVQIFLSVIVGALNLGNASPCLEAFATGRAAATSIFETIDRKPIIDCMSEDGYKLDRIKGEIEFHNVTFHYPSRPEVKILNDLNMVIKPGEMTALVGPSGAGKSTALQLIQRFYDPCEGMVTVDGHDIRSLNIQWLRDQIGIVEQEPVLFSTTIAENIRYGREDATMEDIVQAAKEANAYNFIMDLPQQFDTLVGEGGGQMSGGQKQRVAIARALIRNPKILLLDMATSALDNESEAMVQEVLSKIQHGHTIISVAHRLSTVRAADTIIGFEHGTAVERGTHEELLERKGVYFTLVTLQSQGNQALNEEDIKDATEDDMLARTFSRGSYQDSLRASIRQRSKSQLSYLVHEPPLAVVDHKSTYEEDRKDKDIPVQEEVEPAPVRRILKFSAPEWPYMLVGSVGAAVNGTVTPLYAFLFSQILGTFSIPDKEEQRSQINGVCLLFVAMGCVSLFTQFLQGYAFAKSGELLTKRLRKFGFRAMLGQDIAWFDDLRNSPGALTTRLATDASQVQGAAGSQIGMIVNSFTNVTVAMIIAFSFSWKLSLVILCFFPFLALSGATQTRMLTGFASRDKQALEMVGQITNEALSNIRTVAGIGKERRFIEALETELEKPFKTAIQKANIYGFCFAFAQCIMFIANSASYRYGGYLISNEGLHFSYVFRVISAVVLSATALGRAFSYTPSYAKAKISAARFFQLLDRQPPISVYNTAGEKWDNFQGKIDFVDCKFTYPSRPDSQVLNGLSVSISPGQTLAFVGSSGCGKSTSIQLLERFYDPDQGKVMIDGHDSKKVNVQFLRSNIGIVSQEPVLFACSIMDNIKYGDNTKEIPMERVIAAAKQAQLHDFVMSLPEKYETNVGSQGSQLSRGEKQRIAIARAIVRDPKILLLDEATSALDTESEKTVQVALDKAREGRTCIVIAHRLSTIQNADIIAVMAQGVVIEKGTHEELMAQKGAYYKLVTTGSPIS
compound,measurement,setting,value
COC[C@H](c1cnn2cc([C@@H](NC(=O)/C(F)=C\C3CC3)C3CCC(F)(F)CC3)nc2c1)N1C[C@@H](C(F)(F)F)NC1=O,MTD at 336 h,[1],1000 mg/kg
same,IC50,[2],13 nM
same,F,[3],41%
same,half-life,[4],8.3 h
same,fraction unbound,[5],0.094
same,CLH,[6],4.2 µL
same,MTD at 336 h,[7],75 mg/kg
same,fraction unbound,[8],0.075
same,Vd,[9],3 L/kg
same,Activity,[10],Toxic
same,Activity,[11],Non-Toxic
same,Activity,[12],Toxic
same,microsomal CLint,[13],25 µL/min/mg
same,Activity,Rattus norvegicus [14],97%
same,CLH,[15],5.1 µL
same,Papp A→B,[16],26 ×10⁻⁶ cm/s
same,microsomal CLint,[17],58 µL/min/mg
same,half-life,[18],2 h
same,Activity,Rattus norvegicus [19],Dose-Dependent Effect
same,half-life,[20],2.6 h
same,solubility,[21],150 µM
same,CLH,[22],58 µL
same,AUC(0-t) at 24 h,[23],1.58 µM·h
same,Activity,[24],Toxic
same,logD,[25],3.8
same,fold change (FC),[26],9
same,AUClast,[27],0.53 µM·h
same,fraction unbound,[28],0.062
same,IC50,[29],11000 nM
same,fraction unbound,[30],0.048
same,microsomal CLint,[31],18 µL/min/mg
same,Activity,Rattus norvegicus [32],60%
same,Activity,[33],Toxic
same,IC50,[34]; 24 h,4 nM
same,IC90,[34]; time 24 hrs,37 nM
same,Vd,[35],3.7 L/kg
same,F,[36],106%
same,IC90,[37],45 nM
same,t1/2,[38],> 8 h
same,AUClast,[39],4.2 µM·h
same,microsomal CLint,[40],38 µL/min/mg
same,F,[41],94%
same,AUC,[42],0.024 µM·h
same,IC50,[43],14000 nM
same,IC50,Bile salt export pump,19000 nM
same,Vd,[44],4.4 L/kg
